Activity calls are given as the source filed them.
What was measured:
[1] = test system: H4; test: Luminescence Cell-Based Dose Response HTS to Identify Activators of 5'UTR Stem-Loop Driven Prion Protein mRNA Translation in H4 Neuroglioblastoma Cells. [Related pubchem assays: 1829 (Project Summary), 1814 (Primary HTS)]; assay type: functional; conditions: Homo sapiens
[2] = target: T1, RNA-binding protein pos-1 (Caenorhabditis elegans, UniProt G5EF15); test: disruptors of C. elegans POS-1 RNA interaction – biochemical, fluorescence polarization, dose response (AID 1964);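 further: purified POS-1 fused to maltose binding protein made in E. coli; potency of compounds blocking POS-1 binding to fluorescent RNA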
T1 sequence (G5EF15 whole entry): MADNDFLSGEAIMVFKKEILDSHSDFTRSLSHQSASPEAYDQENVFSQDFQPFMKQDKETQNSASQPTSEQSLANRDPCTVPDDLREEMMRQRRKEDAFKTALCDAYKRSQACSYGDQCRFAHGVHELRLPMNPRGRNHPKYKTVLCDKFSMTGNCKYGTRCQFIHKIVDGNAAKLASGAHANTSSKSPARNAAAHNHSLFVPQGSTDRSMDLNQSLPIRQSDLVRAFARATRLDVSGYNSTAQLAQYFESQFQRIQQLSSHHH

[3] = target: T2, Zinc finger protein mex-5 (Caenorhabditis elegans, UniProt Q9XUB2); test: potency of MEX-5 RNA-binding blockers – biochemical, C. elegans, fluorescence polarization, dose response (AID 1960)
T2 sequence (Q9XUB2 whole entry): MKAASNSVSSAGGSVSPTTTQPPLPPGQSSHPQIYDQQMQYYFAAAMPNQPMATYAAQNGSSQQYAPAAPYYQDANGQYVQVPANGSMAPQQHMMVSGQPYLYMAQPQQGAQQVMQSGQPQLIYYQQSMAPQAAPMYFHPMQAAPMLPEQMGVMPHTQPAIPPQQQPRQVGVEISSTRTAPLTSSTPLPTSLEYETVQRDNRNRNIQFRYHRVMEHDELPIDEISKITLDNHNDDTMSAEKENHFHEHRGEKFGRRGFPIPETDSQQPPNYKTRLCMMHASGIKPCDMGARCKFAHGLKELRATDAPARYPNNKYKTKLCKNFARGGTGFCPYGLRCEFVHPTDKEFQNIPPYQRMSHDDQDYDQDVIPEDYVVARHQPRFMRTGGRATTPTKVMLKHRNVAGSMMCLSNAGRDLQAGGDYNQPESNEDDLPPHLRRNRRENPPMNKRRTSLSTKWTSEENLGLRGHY

[4] = target: T3, Replicative DNA helicase DnaB (Mycobacterium tuberculosis, UniProt P9WMR3); test: DnaB intein splicing inhibitors, dose response, biochemical, cell-free fluorescence (AID 449749); assay type: functional
T3 sequence (P9WMR3 whole entry): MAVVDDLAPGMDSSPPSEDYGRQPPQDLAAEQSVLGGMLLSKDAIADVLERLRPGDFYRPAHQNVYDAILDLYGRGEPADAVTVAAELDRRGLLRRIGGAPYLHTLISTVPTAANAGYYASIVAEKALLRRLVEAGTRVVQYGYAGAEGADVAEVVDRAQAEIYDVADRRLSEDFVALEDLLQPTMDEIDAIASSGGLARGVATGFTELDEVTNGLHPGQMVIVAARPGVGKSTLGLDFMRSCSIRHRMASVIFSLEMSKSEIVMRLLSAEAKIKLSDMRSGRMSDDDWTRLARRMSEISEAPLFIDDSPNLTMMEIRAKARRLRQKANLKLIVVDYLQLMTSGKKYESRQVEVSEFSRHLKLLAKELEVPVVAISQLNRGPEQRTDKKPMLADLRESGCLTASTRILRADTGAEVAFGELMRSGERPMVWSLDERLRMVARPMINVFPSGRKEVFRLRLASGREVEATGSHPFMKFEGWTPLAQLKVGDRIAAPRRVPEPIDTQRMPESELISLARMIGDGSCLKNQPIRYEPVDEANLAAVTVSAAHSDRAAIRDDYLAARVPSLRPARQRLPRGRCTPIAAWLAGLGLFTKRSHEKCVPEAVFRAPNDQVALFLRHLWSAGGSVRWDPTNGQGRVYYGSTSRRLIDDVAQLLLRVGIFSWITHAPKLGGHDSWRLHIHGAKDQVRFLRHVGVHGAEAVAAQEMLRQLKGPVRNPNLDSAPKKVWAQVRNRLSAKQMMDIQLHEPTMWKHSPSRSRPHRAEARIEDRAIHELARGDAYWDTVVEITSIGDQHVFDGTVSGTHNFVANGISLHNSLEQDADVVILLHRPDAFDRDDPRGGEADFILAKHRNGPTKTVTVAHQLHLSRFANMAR

[5] = target: T4, Protein RecA (Mycobacterium tuberculosis, UniProt P9WHJ3); test: Fluorescence Cell-Free Homogeneous Dose Retest to Identify Inhibitors of RecA-Intein Splicing Activity. [Related pubchem assays (depositor defined):AID2097, AID2223, AID489010, AID492950]; assay type: functional
T4 sequence (P9WHJ3 whole entry): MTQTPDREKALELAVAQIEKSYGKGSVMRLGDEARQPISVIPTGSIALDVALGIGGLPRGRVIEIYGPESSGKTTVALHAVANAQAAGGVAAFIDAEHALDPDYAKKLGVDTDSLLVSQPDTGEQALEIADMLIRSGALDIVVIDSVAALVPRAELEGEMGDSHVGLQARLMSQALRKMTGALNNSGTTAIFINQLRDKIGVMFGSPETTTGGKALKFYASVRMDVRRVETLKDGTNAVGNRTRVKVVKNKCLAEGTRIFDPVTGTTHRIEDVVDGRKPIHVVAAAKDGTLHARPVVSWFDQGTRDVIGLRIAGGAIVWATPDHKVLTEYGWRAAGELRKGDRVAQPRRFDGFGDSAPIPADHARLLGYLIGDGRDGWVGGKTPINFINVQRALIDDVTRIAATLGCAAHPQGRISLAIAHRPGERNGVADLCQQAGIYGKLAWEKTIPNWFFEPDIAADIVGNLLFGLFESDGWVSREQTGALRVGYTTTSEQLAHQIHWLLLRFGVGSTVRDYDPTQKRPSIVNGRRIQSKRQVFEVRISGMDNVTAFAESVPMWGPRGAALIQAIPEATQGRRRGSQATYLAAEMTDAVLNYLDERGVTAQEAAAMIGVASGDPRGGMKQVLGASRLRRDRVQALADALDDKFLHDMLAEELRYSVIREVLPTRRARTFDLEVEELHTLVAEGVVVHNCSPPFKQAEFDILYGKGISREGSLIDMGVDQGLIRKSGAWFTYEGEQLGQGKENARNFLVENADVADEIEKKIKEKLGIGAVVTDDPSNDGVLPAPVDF

[6] = target: T5, Rac GTPase-activating protein 1 (Homo sapiens, UniProt Q9H0H5); test: blockers of MgcRacGAP-driven Rac1 GTP hydrolysis – biochemical, ADP Hunter fluorescence, primary and confirmatory, confirmation (AID 624330); assay type: functional
T5 sequence (Q9H0H5 whole entry): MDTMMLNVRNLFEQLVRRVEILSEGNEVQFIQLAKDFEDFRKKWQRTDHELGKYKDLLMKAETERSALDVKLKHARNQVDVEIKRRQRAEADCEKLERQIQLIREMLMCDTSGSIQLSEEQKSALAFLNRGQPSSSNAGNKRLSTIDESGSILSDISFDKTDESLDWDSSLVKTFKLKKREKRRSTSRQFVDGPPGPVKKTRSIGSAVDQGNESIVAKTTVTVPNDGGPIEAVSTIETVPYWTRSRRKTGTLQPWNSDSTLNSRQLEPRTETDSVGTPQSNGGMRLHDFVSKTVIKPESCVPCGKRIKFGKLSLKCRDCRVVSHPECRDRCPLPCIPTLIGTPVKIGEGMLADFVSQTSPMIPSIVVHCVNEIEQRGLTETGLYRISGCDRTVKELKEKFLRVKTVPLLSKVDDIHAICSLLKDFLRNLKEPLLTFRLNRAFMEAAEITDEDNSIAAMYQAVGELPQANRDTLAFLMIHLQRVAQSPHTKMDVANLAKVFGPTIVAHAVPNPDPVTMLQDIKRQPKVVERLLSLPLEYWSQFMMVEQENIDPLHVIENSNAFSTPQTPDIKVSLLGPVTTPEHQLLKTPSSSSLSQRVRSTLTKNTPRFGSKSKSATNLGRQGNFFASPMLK

[7] = Luminescence Cell-Based Dose Retest to Confirm Inhibitors of Cancer Stem Cells. [Related pubchem assays (depositor defined):AID2717, AID2721]; assay type: functional; conditions: Homo sapiens
[8] = target: Cytochrome P450 2D6 (Homo sapiens, UniProt P10635);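 further: CYP2D6 member of a cytochrome P450 panel assay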
Cytochrome P450 2D6, sequence (P10635 whole entry): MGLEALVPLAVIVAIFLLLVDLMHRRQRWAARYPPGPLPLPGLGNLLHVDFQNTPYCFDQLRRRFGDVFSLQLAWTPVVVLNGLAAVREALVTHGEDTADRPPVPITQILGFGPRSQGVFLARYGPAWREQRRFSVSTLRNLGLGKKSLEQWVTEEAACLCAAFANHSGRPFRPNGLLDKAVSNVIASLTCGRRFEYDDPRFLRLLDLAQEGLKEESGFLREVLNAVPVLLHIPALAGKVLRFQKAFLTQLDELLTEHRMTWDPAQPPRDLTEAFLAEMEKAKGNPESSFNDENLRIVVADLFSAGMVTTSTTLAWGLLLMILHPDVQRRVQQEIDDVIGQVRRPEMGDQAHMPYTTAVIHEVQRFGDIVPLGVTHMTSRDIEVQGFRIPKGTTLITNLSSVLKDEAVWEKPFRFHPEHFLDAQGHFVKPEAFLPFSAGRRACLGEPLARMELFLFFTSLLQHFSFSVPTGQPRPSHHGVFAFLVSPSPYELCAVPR

[9] = target: T6, Cytochrome P450 1A2 (Homo sapiens, UniProt P05177);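 further: PubChem cytochrome P450 panel assay, CYP1A2 panel member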
T6 sequence (P05177 whole entry): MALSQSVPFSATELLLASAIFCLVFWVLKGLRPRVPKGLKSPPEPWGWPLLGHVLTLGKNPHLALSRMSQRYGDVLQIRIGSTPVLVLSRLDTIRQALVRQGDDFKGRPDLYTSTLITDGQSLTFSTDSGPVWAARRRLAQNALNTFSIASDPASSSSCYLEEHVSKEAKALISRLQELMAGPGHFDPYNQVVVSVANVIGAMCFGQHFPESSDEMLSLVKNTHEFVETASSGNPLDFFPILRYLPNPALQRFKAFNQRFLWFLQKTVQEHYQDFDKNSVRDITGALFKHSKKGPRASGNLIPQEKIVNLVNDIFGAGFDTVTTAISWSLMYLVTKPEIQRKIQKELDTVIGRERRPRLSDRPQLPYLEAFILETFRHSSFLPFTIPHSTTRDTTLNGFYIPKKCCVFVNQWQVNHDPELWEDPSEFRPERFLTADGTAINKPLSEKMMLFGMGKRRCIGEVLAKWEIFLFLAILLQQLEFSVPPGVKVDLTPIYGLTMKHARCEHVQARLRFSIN

[10] = target: Cytochrome P450 2C9 (Homo sapiens, UniProt P11712)
Cytochrome P450 2C9, sequence (P11712 whole entry): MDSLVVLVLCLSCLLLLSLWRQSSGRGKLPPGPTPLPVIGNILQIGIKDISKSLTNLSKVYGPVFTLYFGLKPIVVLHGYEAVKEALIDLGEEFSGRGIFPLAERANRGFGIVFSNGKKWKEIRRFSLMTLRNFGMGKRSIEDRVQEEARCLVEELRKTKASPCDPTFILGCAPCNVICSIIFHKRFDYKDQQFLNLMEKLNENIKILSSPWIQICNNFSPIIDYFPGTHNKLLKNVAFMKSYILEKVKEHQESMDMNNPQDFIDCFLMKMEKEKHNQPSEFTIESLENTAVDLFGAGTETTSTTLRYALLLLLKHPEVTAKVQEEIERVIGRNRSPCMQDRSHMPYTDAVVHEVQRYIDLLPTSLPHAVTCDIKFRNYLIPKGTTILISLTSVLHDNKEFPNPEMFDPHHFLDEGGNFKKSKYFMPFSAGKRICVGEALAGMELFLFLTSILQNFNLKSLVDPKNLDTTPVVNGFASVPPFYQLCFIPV

[11] = target: Cytochrome P450 3A4 (Homo sapiens, UniProt P08684);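 further: CYP3A4 tested as one member of a cytochrome P450 panel screen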
Cytochrome P450 3A4, sequence (P08684 whole entry): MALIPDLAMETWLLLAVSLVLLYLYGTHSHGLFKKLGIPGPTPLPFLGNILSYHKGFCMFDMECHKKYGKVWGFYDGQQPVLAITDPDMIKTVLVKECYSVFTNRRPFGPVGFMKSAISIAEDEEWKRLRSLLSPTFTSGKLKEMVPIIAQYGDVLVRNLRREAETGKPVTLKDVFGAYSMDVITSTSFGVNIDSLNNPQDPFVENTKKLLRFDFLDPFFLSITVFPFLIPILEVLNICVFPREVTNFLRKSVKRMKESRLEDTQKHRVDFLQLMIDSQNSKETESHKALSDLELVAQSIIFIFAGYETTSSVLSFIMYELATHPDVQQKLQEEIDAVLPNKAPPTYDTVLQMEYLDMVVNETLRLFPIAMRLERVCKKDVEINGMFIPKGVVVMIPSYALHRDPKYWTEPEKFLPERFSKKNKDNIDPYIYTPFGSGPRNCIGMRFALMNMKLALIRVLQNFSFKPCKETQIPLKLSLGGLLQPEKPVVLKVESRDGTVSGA

Row | Compound | EC50 [2] | EC50 [3] | AC50 [4] | EC50 [5] | further results
1 | Cc1ccc(C(=O)Nc2nc3ccccc3n2CCN2CCCC2)cc1 |  |  |  |  | EC50 [1]: 10.9 µM (active)
2 | O=C1OCc2cc(-n3cccc3)ccc21 | > 300 µM (not active) | > 300 µM (not active) |  |  | 
3 | N#C/C(=C/c1ccc2c(c1)OCO2)C(=O)Nc1ccc(O)cc1 |  |  | 19 µM (active) | 3.64 µM (active) | IC50 [6]: 55.4 µM (active)
4 | Cc1ccc(-c2ccc(CCC(=O)O)n2-c2cccc(C(=O)O)c2)cc1 | > 300 µM (not active) | > 300 µM (not active) |  |  | 
5 | CCCCCc1cc(=O)oc2c(C(CCN3CCCC(C)C3)c3ccc4c(c3)OCO4)c(OC)cc(OC)c12 (stereo not given) |  |  | 5.31 µM (active) | 11.6 µM (active) | AC50 [7]: 6.14 µM (active)
6 | O=C(C1CCN(S(=O)(=O)c2cccc3nsnc23)CC1)N1CCn2c1nc1ccccc12 |  |  |  |  | AC50 [8]: 17.8 µM (inconclusive); AC50 [9]: 20 µM (inconclusive); AC50 [10]: 25.1 µM (inconclusive)
7 | CCc1n[nH]c2c1C(c1cccnc1)C(C#N)=C(N)O2 (stereo not given) |  |  | 24.4 µM (inconclusive) | 11.5 µM (active) | 
8 | CCOC(=O)C1Nc2ccc(OC(F)(F)F)cc2C2C=CCC12 (stereo not given) | > 300 µM (not active) | > 300 µM (not active) |  |  | 
9 | Cc1cccc(NC(=O)/C(C#N)=C\c2cc(C)n(-c3ccc(C(=O)O)cc3)c2C)c1 | 84 µM (active) | > 300 µM (not active) |  |  | 
10 | COc1ccc(C(=O)/C=C/c2ccc(N3CCCCC3)c([N+](=O)[O-])c2)c(OC)c1 | > 300 µM (not active) | > 300 µM (not active) |  |  | AC50 [7]: 4.31 µM (active)
11 | O=C(O)c1cccc(SSc2cccc(C(=O)O)c2)c1 |  |  |  |  | AC50 [9]: 5.01 µM (inconclusive); AC50 [10]: 2 µM (inconclusive)
12 | Cc1sc2nc(SCc3nc(-c4cccs4)no3)n(-c3ccccc3)c(=O)c2c1C |  |  |  |  | AC50 [9]: 14.1 µM (inconclusive); AC50 [10]: 0.501 µM (inconclusive)
13 | CC1(OC(=O)C2CCCC2)C(=O)C=C2C=C(c3ccsc3)OC=C2C1=O (stereo not given) | 47.8 µM (active) | 37.1 µM (active) |  |  | 
14 | CC(C)(C)N=C(S)NCCc1ccccc1 | > 300 µM (inconclusive) | > 300 µM (not active) |  |  | 
15 | CS(=O)(=O)c1ccc(C(=O)OCc2nnc(-c3ccc(Cl)cc3)o2)cc1[N+](=O)[O-] |  |  | 2.2 µM (active) | 1.42 µM (active) | 
16 | Cc1ccc(Nc2cc(C)nc3c(C)ccc([N+](=O)[O-])c23)cc1 |  |  | > 120 µM (inactive) | 2.34 µM (active) | 
17 | CC1(C)CC(=O)C2=C(C1)OC(N)=C(C#N)[C@@]21C(=O)N(CC(N)=O)c2ccccc21 | > 300 µM (not active) | > 300 µM (not active) |  |  | 
18 | CCCc1n[nH]c2c1C(c1ccc(OC)c(Cn3nnc4ccccc43)c1)C(C#N)=C(N)O2 (stereo not given) |  |  | 19.7 µM (active) | 0.283 µM (active) | 
19 | Cc1cc(C)cc(N2C(=O)/C(=C/Nc3ccc(N4CCOCC4)cc3)C(=O)NC2=S)c1 | 7.92 µM (active) | 5.42 µM (inconclusive) |  |  | 
20 | N#Cc1cccc(NC(=O)N2CCCC3(CCN(C(=O)c4cnccn4)CC3)C2)c1 |  |  |  |  | AC50 [9]: 20 µM (inconclusive); AC50 [11]: 15.8 µM (inconclusive)
21 | COc1cc(NC(=O)c2cc(Cl)ccc2Cl)ccc1-c1cc2ccccc2oc1=O |  |  |  |  | AC50 [8]: 25.1 µM (inconclusive); AC50 [9]: 12.6 µM (inconclusive); AC50 [11]: 1 µM (inconclusive)
22 | N#CC(C#N)=Cc1ccc(NC(=O)c2ccc(Br)cc2)cc1 | > 300 µM (not active) | > 300 µM (not active) |  |  | 
23 | CC1=NN(Cc2ccccc2)C(=O)C1 |  |  | 5.61 µM (active) | 1.88 µM (active) | 

Source: ChEMBL document CHEMBL1201862, “PubChem BioAssay data set” (2004)
